For 19 compounds, AC50 results are on record in patent US9458132B2, “Therapeutic compounds and compositions and their use as PKM2 modulators” (AGIOS PHARMACEUTICALS, INC., priority 2012, dated 2016).

The target in one assay is PKR R510Q (Homo sapiens, UniProt P30613, R510Q). The assay is described as follows: PKR mutant assay, PKR R510Q AC50. The assay is classed as biochemical. The following applies: mutant PKR R510Q enzyme. On the procedure:
(§1) • PKR or PKR mutant enzyme solution was diluted in assay buffer. • 2 μL of test compound was added into wells first, and then 180 μL reaction mix was added. • Reactions mixture with test compound was assembled except for ADP, and plates were stored for 60 minutes at room temperature. • 20 uL ADP was added to start reaction at room temperature and reaction progress was measured as changes in absorbance at 340 nm wavelength at room temperature.
Test Compound Preparation: • Test compound stock was made at 100x concentration in 100% DMSO (10 mM) • 1 to 3 dilutions were made for 11 points (i.e. 50 μl of first concentration added to 100 μl 100% DMSO to yield 3.33 mM, 50 μl of this added to 100 μl DMSO to yield 1.11 mM, and so forth) • 1 to 100 dilution into assay (2 μl in 200 μl) yielded starting concentration of 100 μM, decreasing 3 fold for 11 points • Assay Buffer: 100 mM KCl, 50 mM Tris 7.5, 5 mM MgCl2, 1 mM DTT, 0.03% BSA • Reaction Mixture: PKR mutant enzyme: 80-400 ng/well; ADP: 0.22-1.65 mM; PEP: 0.1-0.5 mM; NADH:180 uM; LDH: 0.5 units (Sigma#59023); DTT: 1 mM; BSA: 0.03%. […]

Another assay concerns the target PKR R532W (Homo sapiens, UniProt P30613, R532W). The assay is described as follows: PKR mutant assay, PKR R532W AC50. The class given is biochemical. As to conditions: mutant PKR R532W enzyme. On the procedure:
as §1
(§2) Test Compound Preparation: • Test compound stock was made at 100x concentration in 100% DMSO (10 mM) • 1 to 3 dilutions were made for 11 points (i.e. 50 μl of first concentration added to 100 μl 100% DMSO to yield 3.33 mM, 50 μl of this added to 100 μl DMSO to yield 1.11 mM, and so forth) • 1 to 100 dilution into assay (2 μl in 200 μl) yielded starting concentration of 100 μM, decreasing 3 fold for 11 points • Assay Buffer: 100 mM KCl, 50 mM Tris 7.5, 5 mM MgCl2, 1 mM DTT, 0.03% BSA • Reaction Mixture: PKR mutant enzyme: 80-400 ng/well; ADP: 0.22-1.65 mM; PEP: 0.1-0.5 mM; NADH:180 uM; LDH: 0.5 units (Sigma#59023); DTT: 1 mM; BSA: 0.03%.
(§3) A compound described herein was diluted with DMSO and tested at 1 μM concentration. The enzyme was diluted in 1× Buffer: (100 mM KCl, 50 mM Tris 7.5, 5 mM MgCl2, 1 mM DTT, 0.03% BSA). 2 μL of compound solution was first added into wells, and then 180 μL of enzyme solution was added. Assays were assembled except for ADP, and plates were stored for 60 minutes at RT. 20 μL ADP was added to start the assay and assay output was evaluated using OD340 at SpectraMax. The assay was run at room temperature. • Final concentration: PKR R532W (100 ng/well), Tris pH 7.5 (50 mM), KCl (100 mM), MgCl2 (5 mM), ADP (0.36 mM), PEP (0.1 mM), NADH (180 μM), LDH (0.5 units, Sigma 59023), DTT (1 mM) and BSA (0.03%).

In assay [1] the target is T1, PKR WT (Homo sapiens, UniProt P30613). The assay is described as follows: PKR WT enzymatic assay AC50. The class given is biochemical. The following applies: wild type PKR. How it is done: as §1, §2
as §3, with “wt” for “R532W”, “(0.48” for “(0.36”, “(0.15” for “(0.1”

In assay [2] the target is T1, PKR WT. Nature of the assay: PKR WT cell based assay AC50. As to conditions: wild type PKR.

SMILES strings stand for the structures.

T1 sequence (P30613 whole entry): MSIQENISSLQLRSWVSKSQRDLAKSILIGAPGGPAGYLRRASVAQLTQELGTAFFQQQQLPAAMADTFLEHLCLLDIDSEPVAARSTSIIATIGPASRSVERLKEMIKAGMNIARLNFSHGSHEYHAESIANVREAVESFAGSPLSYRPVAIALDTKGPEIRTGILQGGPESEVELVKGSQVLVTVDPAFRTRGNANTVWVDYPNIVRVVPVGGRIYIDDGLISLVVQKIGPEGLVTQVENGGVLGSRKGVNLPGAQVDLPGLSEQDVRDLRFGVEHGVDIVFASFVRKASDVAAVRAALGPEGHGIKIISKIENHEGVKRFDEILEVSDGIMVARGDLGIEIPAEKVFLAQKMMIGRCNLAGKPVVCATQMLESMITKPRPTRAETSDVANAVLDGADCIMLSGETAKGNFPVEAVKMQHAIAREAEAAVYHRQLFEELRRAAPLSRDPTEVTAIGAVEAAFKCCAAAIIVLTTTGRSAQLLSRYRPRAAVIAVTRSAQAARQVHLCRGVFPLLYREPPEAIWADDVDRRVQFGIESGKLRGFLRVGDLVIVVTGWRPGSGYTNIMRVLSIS
Chain of PKR R510Q (P30613 whole entry R510Q): as the sequence (P30613 whole entry) above, with R510Q counted along it
Chain of PKR R532W (P30613 whole entry R532W): as the sequence (P30613 whole entry) above, with R532W counted along it

Turning to `COc1ccccc1C1(O)CN(C(=O)c2ccc(NS(=O)(=O)c3cccc4cccnc34)cc2)C1` [Compound 2, N-(4-(3-hydroxy-3-(2-methoxyphenyl)azetidine-1-carbonyl)phenyl)quinoline-8-sulfonamide], the AC50 on PKR R510Q is 0.101 to 1 µM; on PKR R532W it was below 0.1 µM; at PKR WT [1] it was below 0.1 µM; on PKR WT [2], 0.101 to 1 µM.

Turning to `Cc1ncccc1C1(O)CN(C(=O)c2ccc(NS(=O)(=O)c3cccc4cccnc34)cc2)C1` [Compound 19, N-(4-(3-hydroxy-3-(2-methylpyridin-3-yl)azetidine-1-carbonyl)phenyl)quinoline-8-sulfonamide], the AC50 at PKR R510Q was 0.101 to 1 µM; on PKR R532W, below 0.1 µM; on PKR WT [1], 0.101 to 1 µM; at PKR WT [2] it was 0.101 to 1 µM.

`O=C(c1ccc(NS(=O)(=O)c2cccc3cccnc23)cc1)N1CC(O)(c2cccnc2C(F)(F)F)C1` [Compound 17, N-(4-(3-hydroxy-3-(2-(trifluoromethyl)pyridin-3-yl)azetidine-1-carbonyl)phenyl)quinoline-8-sulfonamide]: the figures for the AC50 on PKR R510Q, on PKR WT [1] and at PKR WT [2] were 0.101 to 1 µM, below 0.1 µM and 0.101 to 1 µM, respectively.

For `CC(O)CC1(O)CN(C(=O)c2ccc(NS(=O)(=O)c3cccc4cccnc34)cc2)C1` (centres unmarked) [Compound 41, N-(4-(3-hydroxy-3-(2-hydroxypropyl)azetidine-1-carbonyl)phenyl)quinoline-8-sulfonamide], the AC50 on PKR R510Q was above 10 µM; on PKR R532W it was 1.01 to 10 µM; on PKR WT [1] it was 1.01 to 10 µM.

On to `O=C(c1ccc(NS(=O)(=O)c2ccccc2Cl)cc1)N1CC(O)(Cc2ccccc2)C1` [Compound 49, N-(4-(3-benzyl-3-hydroxyazetidine-1-carbonyl)phenyl)-2-chlorobenzenesulfonamide], for which the values for the AC50 at PKR R510Q, at PKR R532W and at PKR WT [1] were above 10 µM, 1.01 to 10 µM and 1.01 to 10 µM, respectively.

Turning to `CCc1ccccc1C1(O)CN(C(=O)c2ccc(NS(=O)(=O)c3cccc4cccnc34)cc2)C1` [Compound 13, N-(4-(3-(2-ethylphenyl)-3-hydroxyazetidine-1-carbonyl)phenyl)quinoline-8-sulfonamide], the AC50 on PKR R510Q was 0.101 to 1 µM; at PKR WT [1] it was below 0.1 µM; at PKR WT [2], below 0.1 µM.

Turning to `O=C(c1ccc(NS(=O)(=O)c2cccc3cccnc23)cc1)N1CC(O)(CCO)C1` [Compound 38, N-(4-(3-hydroxy-3-(2-hydroxyethyl)azetidine-1-carbonyl)phenyl)quinoline-8-sulfonamide], the AC50 at PKR R510Q was above 10 µM; at PKR R532W, above 10 µM; at PKR WT [1], 1.01 to 10 µM.

In the case of `O=C(c1ccc(NS(=O)(=O)c2ccccc2C(F)(F)F)cc1)N1CC(O)(Cc2ccccc2)C1` [Compound 51, N-(4-(3-benzyl-3-hydroxyazetidine-1-carbonyl)phenyl)-2-(trifluoromethyl)benzenesulfonamide], the AC50 on PKR R510Q, on PKR R532W and on PKR WT [1] was above 10 µM each time.

On to `O=C(c1ccc(NS(=O)(=O)c2cccc3cnccc23)cc1)N1CC(O)(c2cccc(C(F)(F)F)c2)C1` [Compound 43, N-(4-(3-hydroxy-3-(3-(trifluoromethyl)phenyl)azetidine-1-carbonyl)phenyl)isoquinoline-5-sulfonamide], for which the AC50 is above 10 µM on PKR R510Q, 1.01 to 10 µM on PKR R532W and 1.01 to 10 µM on PKR WT [1].

Consider `O=C(c1ccc(NS(=O)(=O)c2cccc3cccnc23)cc1)N1CC(O)(Cc2cccc(F)n2)C1` [Compound 54, N-(4-(3-((6-fluoropyridin-2-yl)methyl)-3-hydroxyazetidine-1-carbonyl)phenyl)quinoline-8-sulfonamide], for which the AC50 was in the range of 1.01 to 10 µM on PKR R510Q, 0.101 to 1 µM on PKR R532W and 0.101 to 1 µM at PKR WT [1].

`O=C(c1ccc(NS(=O)(=O)c2cccc3cccnc23)c(F)c1)N1CC(O)(Cc2ccccc2)C1` [Compound 46, N-(4-(3-benzyl-3-hydroxyazetidine-1-carbonyl)-2-fluorophenyl)quinoline-8-sulfonamide]: the AC50 was in the range of 1.01 to 10 µM at PKR R510Q, 0.101 to 1 µM at PKR R532W and 0.101 to 1 µM on PKR WT [1].

Consider `O=C(c1ccc(NS(=O)(=O)c2cccc3cccnc23)cc1)N1CC(O)(Cc2ccccn2)C1` [Compound 55, N-(4-(3-hydroxy-3-(pyridin-2-ylmethyl)azetidine-1-carbonyl)phenyl)quinoline-8-sulfonamide], for which the AC50 lay within 1.01 to 10 µM on PKR R510Q, 0.101 to 1 µM on PKR R532W and 0.101 to 1 µM on PKR WT [1].

As to `O=C(c1ccc(NS(=O)(=O)c2cccc3cccnc23)cc1)N1CC(O)(c2ccccc2F)C1` [Compound 3, N-(4-(3-(2-fluorophenyl)-3-hydroxyazetidine-1-carbonyl)phenyl)quinoline-8-sulfonamide], the AC50 on PKR R510Q lay in the range of 1.01 to 10 µM; at PKR R532W, 0.101 to 1 µM; at PKR WT [1], 0.101 to 1 µM.

Consider `O=C(c1ccc(NS(=O)(=O)c2cccc3cccnc23)cc1)N1CC(O)(c2ccc(F)cc2)C1` [Compound 14, N-(4-(3-(4-fluorophenyl)-3-hydroxyazetidine-1-carbonyl)phenyl)quinoline-8-sulfonamide], for which the AC50 on PKR R510Q is 1.01 to 10 µM; at PKR R532W, 0.101 to 1 µM; at PKR WT [1] it was 0.101 to 1 µM.

In the case of `O=C(c1ccc(NS(=O)(=O)c2cccc3ncccc23)cc1)N1CC(O)(c2cccc(C(F)(F)F)c2)C1` [Compound 44, N-(4-(3-hydroxy-3-(3-(trifluoromethyl)phenyl)azetidine-1-carbonyl)phenyl)quinoline-5-sulfonamide], the AC50 at PKR R510Q, on PKR R532W and on PKR WT [1] was 1.01 to 10 µM in each case.

Regarding `O=C(c1ccc(NS(=O)(=O)c2cccc3cccnc23)cc1)N1CC(O)(c2ccccc2C(F)(F)F)C1` [Compound 6, N-(4-(3-hydroxy-3-(2-(trifluoromethyl)phenyl)azetidine-1-carbonyl)phenyl)quinoline-8-sulfonamide], the AC50 at PKR R510Q, on PKR R532W and on PKR WT [1] was 0.101 to 1 µM throughout.

Turning to `O=C(c1ccc(NS(=O)(=O)c2ccc(F)cc2F)cc1)N1CC(O)(c2cccc(C(F)(F)F)c2)C1` [Compound 42, 2,4-difluoro-N-(4-(3-hydroxy-3-(3-(trifluoromethyl)phenyl)azetidine-1-carbonyl)phenyl)benzenesulfonamide], the AC50 on PKR R510Q, at PKR R532W and on PKR WT [1] was above 10 µM in each case.

Take `O=C(c1ccc(NS(=O)(=O)c2cccc3cccnc23)cc1)N1CC(O)(CC2CC2)C1` [Compound 37, N-(4-(3-(cyclopropylmethyl)-3-hydroxyazetidine-1-carbonyl)phenyl)quinoline-8-sulfonamide]: the AC50 at PKR R510Q is above 10 µM; on PKR R532W, 0.101 to 1 µM; on PKR WT [1], 0.101 to 1 µM.

Take `CCCC1(O)CN(C(=O)c2ccc(NS(=O)(=O)c3cccc4cccnc34)cc2)C1` [Compound 36, N-(4-(3-hydroxy-3-propylazetidine-1-carbonyl)phenyl)quinoline-8-sulfonamide]: the AC50 was above 10 µM at PKR R510Q, 1.01 to 10 µM at PKR R532W and 0.101 to 1 µM at PKR WT [1].
